Measurements as given in article PMC7211193, “Evaluation of absorption, distribution, metabolism, and excretion of [^14C]-rucaparib, a poly(ADP-ribose) polymerase inhibitor, in patients with advanced solid tumors” (Investigational New Drugs, 2019).
Several values for one entry are separate records, joined by “and”; a condition that tells them apart may be missing. Equal entries are not always repeated. Values belong to the compound of their own block, whether it stands above or below them.

What was measured:
Assay type in all cases: in vivo, human
[1] = Metabolite profiling in pooled feces (LC-MS-Radiomatic); conditions: for Amount detected in feces: pooled fecal homogenates, mainly observed by MS only
Protocol: For each patient, homogenized feces samples from different collection intervals were pooled in proportion to their sample weight in order to obtain a pooled sample covering 90% of the TRA recovered in feces. Aliquots of the pooled fecal samples were extracted at least twice with acetonitrile. The obtained supernatant was evaporated. The dried residues were reconstituted in 40% DMSO in water to obtain maximum recovery. An aliquot of the supernatant was analyzed for TRA to determine extraction efficiency, and the mean recovery was ≈75%. Aliquots of the supernatants were injected into the HPLC coupled to UV and radioactive detectors to obtain metabolite profiles. The sample supernatants were also analyzed using LC-MS to identify metabolites.
(§1) Metabolite profiling and identification were performed on an LC system (Agilent) coupled to an LTQ Orbitrap mass spectrometer (Thermo Electron, Waltham, MA, USA) in combination with offline TopCount (LC-MS-TopCount) or online Radiomatic 625TR (LC-MS-Radiomatic; PerkinElmer). Proposed structures of the metabolites were based on accurate mass (<5 ppm) and comparison of mass spectral data of parent compound rucaparib and metabolite standard M324. The Radiomatic 625TR flow detector, equipped with a 200 μL flow cell, was operated using scintillation cocktail (Ultima-Flo M) delivered at a flow rate of 1 mL/min. Chromatography was done using a Phenomenex (Torrance, CA, USA) Luna Phenyl-Hexyl column (250 × 2 mm, 5 μm, 100 Å) at ambient temperature during the sample analysis. The mobile phase was (A) 0.05% TFA in water and (B) 0.05% TFA in acetonitrile, with a 0.2 mL/min flow rate. The gradient was as follows: 5% B over 2.1 min, to 20% B in 1.0 min, to 35% B in 16.9 min, isocratic at 35% B for 5 min, to 95% B over 5 min, and reduced to 5% B over 1 min, with total run time 45 min.
(§2) The abundance of unchanged rucaparib and metabolites identified in plasma, urine, and feces was determined as a percentage of the TRA in the analyzed samples. Percentage of the administered dose of rucaparib and metabolites was calculated in urine and feces (formula A). The concentration of rucaparib and its metabolites in plasma (ng Eq h/mL) was calculated based on the specific activity, TRA, and percentage of peaks (formula B). The AUC0-24h value of rucaparib and its major metabolite M324 in plasma was calculated using both Hamilton method (formula C) and linear trapezoidal method (formula D). • (A) %Doseofmetabolite=TRAinurineorfeces(dpm)÷TRAinadministereddose(dpm)×%metabolitesinmatrix • (B) Metaboliteconcentrationsinplasma(ngEq/mL)=TRAinplasma(dpm/mL)specificactivity(ngEq/dpm)×%metabolitesinthematrix • (C) Hamiltonmethod:AUC0−24h(ngEqh/mL)=concentrationinHamilton(AUC0−24h)pooledplasma(ngEq/mL)×24(h) • (D) Lineartrapezoidalmethod:AUC0−24h(ngEqh/mL)=C1h/2×1h+C1h+C4h/2×(4h−1h)+C4h+C8h/2×(8h−4h)+C8h+C24h/2×(24h−8h)

[2] = Metabolite profiling in plasma (LC-MS-TopCount); conditions: for Amount detected in plasma: Hamilton AUC0-24h pooled plasma
Protocol: Plasma samples from six patients were pooled using two methods: (1) A Hamilton pool plasma (0–24 h) for metabolite profile determination was prepared by combining plasma aliquots of a volume proportional to the time interval used for calculating the AUC (AUC0-24h pool) for each patient and (2) four time-point pooling samples were obtained by equal volume pool at 1, 4, 8, and 24 h across six patients. In addition, plasma samples at 1, 8, and 24 h were selected from three patients (Patients 03, 08, and 09) for metabolite profiles analysis to check the individual differences between patients. Samples collected after 24 h post dose were not included in the pooling due to the low radioactivity at later time points. All plasma samples (pooled and from individuals) were extracted at least two times with acetonitrile. All supernatants were evaporated to dryness, and the dried residues were reconstituted in 20% acetonitrile in water containing 0.1% TFA. The sample recovery was obtained by comparing the radioactivity concentrations before and after extraction, and the mean recovery was about 70%.
Aliquots of the supernatants were injected into the HPLC, and the HPLC elutes were collected as fractions at intervals of 30 sec per well into LumaPlate-96 DeepWell microplates (PerkinElmer). Due to the low radioactivity in each plasma sample, metabolite profiles were obtained by TopCount (PerkinElmer) analysis of HPLC elutes. The fractions were dried at room temperature, and then analyzed by a TopCount NXT radiometric microplate reader (PerkinElmer) to obtain metabolite profiles. The supernatants of extracts were also analyzed using an LC-MS method to identify metabolites.
as §1, §2

[3] = Metabolite identification by LC-MS/MS in plasma, urine and feces; conditions: F feces, P plasma, U urine
Protocol: as §1
The LTQ Orbitrap mass spectrometer was equipped with an electrospray ionization interface and operated in positive ionization mode for metabolite profiling and identification. Mass spectra were acquired in full scan (MS) (m/z 150–1500) and data-dependent scan modes. Mass spectrometer parameter settings were: spray voltage, +5.0 kV; capillary temperature, 350 °C; sheath gas, 80 (arbitrary unit); auxiliary gas, 30 (arbitrary unit); activation Q, 0.25; activation time, 30 msec; resolution, 7500; and collision energy, 35 eV.
The structures of the metabolites were identified by LC-MS/MS based on comparisons of mass spectral fragmentation patterns with those produced by the parent compound. Further confirmation of the identities of the metabolites was based on the elemental composition determined from accurate mass analyses using an Orbitrap high-resolution mass spectrometer.
The structures of the major metabolites found in plasma, urine, and feces were also confirmed by comparisons with the synthetic reference standard M324.

[4] = Metabolite profiling in pooled urine (LC-MS-Radiomatic)
Protocol: For each patient, urine samples from different collection intervals were pooled in proportion to their sample weight in order to obtain a pooled sample covering 90% of the TRA in urine. Pooled urine samples were lyophilized and then extracted at least twice with acetonitrile. The obtained supernatant was evaporated to dryness, and the dried residues were reconstituted in 20% acetonitrile in water containing 0.1% TFA. An aliquot of the supernatant was analyzed for TRA to determine extraction efficiency, and the mean recovery was ≈70%. Aliquots of the supernatants were injected into the HPLC coupled to UV and radioactive detectors to obtain metabolite profiles. The samples were also analyzed using LC-MS for metabolite identification.
as §1, §2

[5] = 0-24 h pooled plasma, N = 6, mean ± SD

% of dose in pooled fecal homogenate, Patient 01 ([1]; Patient 01): 6.39 % dose
% of dose in pooled fecal homogenate, Patient 03 ([1]; Patient 03): 7.82 % dose
% of dose in pooled fecal homogenate, Patient 05 ([1]; Patient 05): 3.33 % dose
% of dose in pooled fecal homogenate, Patient 06 ([1]; Patient 06): 2.22 % dose
% of dose in pooled fecal homogenate, Patient 08 ([1]; Patient 08): 0.00 % dose
% of dose in pooled fecal homogenate, Patient 09 ([1]; Patient 09): 0.00 % dose
% Peak (of TRA) in feces ([1]; pooled fecal homogenate covering >90% of fecal excretion, N = 6, mean ± SD): 5.07 ± 4.95%
% Dose in feces ([1]; pooled fecal homogenate, % of administered dose, N = 6, mean ± SD): 3.3% and 3.29 ± 3.25%
% Peak (of plasma radioactivity), Hamilton (AUC0-24h) pooled plasma [2, 5]: 18.6 ± 10.8%
Concentration, Hamilton (AUC0-24h) pooled plasma [2, 5]: 94.0 ± 62.7 ng Eq/mL
M324 as percentage of unchanged rucaparib exposure in 24-h pooled plasma ([2]; Hamilton 0-24 h pooled plasma): 30.3%
% Radioactive peaks in individual plasma, Patient 03, 1 h ([2]; Patient 03, 1 h): 15.4%
% Radioactive peaks in individual plasma, Patient 03, 8 h ([2]; Patient 03, 8 h): 33.3%
% Radioactive peaks in individual plasma, Patient 03, 24 h ([2]; Patient 03, 24 h): 63.9%
% Radioactive peaks in individual plasma, Patient 08, 1 h ([2]; Patient 08, 1 h): 7.94%
% Radioactive peaks in individual plasma, Patient 08, 8 h ([2]; Patient 08, 8 h): 20%
% Radioactive peaks in individual plasma, Patient 08, 24 h ([2]; Patient 08, 24 h): 61.5%
% Radioactive peaks in individual plasma, Patient 09, 1 h ([2]; Patient 09, 1 h): 15.4%
% Radioactive peaks in individual plasma, Patient 09, 8 h ([2]; Patient 09, 8 h): 17.9%
% Radioactive peaks in individual plasma, Patient 09, 24 h ([2]; Patient 09, 24 h): 36.2%
% Radioactive peaks in individual plasma, Mean ± SD, 1 h ([2]; Patients 03, 08, 09, 1 h): 12.9 ± 4.31%
% Radioactive peaks in individual plasma, Mean ± SD, 8 h ([2]; Patients 03, 08, 09, 8 h): 23.7 ± 8.35%
% Radioactive peaks in individual plasma, Mean ± SD, 24 h ([2]; Patients 03, 08, 09, 24 h): 53.9 ± 15.3%
AUC0-24h, Hamilton (AUC0-24h) pooled plasma ([2]; concentration in 0-24-h pooled sample × 24 h): 2260 ng Eq h/mL
concentration at 1 h ([2]; human, plasma, oral, 600 mg, single pooled sample from all six patients, 1 h, read-out: Mean concentration, time point pooled plasma, 1 h): 31.1 ng/mL
concentration at 4 h ([2]; human, plasma, oral, 600 mg, single pooled sample from all six patients, 4 h, read-out: Mean concentration, time point pooled plasma, 4 h): 265 ng/mL
concentration at 8 h ([2]; human, plasma, oral, 600 mg, single pooled sample from all six patients, 8 h, read-out: Mean concentration, time point pooled plasma, 8 h): 105 ng/mL
concentration at 24 h ([2]; human, plasma, oral, 600 mg, single pooled sample from all six patients, 24 h, read-out: Mean concentration, time point pooled plasma, 24 h): 239 ng/mL
Mean AUC0-24h, time point pooled plasma ([2]; trapezoidal method from 1, 4, 8, 24 h pools): 3960 ng Eq h/mL
Matrix in which identified [3]: P, U, F
% of dose in pooled urine, Patient 01 ([4]; Patient 01): 6.17 % dose
% of dose in pooled urine, Patient 03 ([4]; Patient 03): 7.24 % dose
% of dose in pooled urine, Patient 05 ([4]; Patient 05): 7.22 % dose
% of dose in pooled urine, Patient 06 ([4]; Patient 06): 8.54 % dose
% of dose in pooled urine, Patient 08 ([4]; Patient 08): 6 % dose
% of dose in pooled urine, Patient 09 ([4]; Patient 09): 10.3 % dose
% Peak (of TRA) in urine ([4]; pooled urine covering 90% of urine radioactivity, N = 6, mean ± SD): 50.0 ± 15.5%
% Dose in urine ([4]; pooled urine, % of administered dose, N = 6, mean ± SD): 7.58 ± 1.61%
Structure (SMILES): O=C(O)c1ccc(-c2[nH]c3cc(F)cc4c3c2CCNC4=O)cc1 [M324]

Amount detected in feces [1]: trace amounts
Amount detected in plasma [2]: small or trace amounts
Matrix in which identified [3]: P, U, F
Amount observed in urine ([4]; pooled urine): small to trace amounts
Structure (SMILES): NC(=O)c1ccc(-c2[nH]c3cc(F)cc4c3c2CCNC4=O)cc1 [M323]

Amount detected in feces [1]: trace amounts
Amount detected in plasma [2]: small or trace amounts
Matrix in which identified [3]: P, U, F
Amount observed in urine ([4]; pooled urine): small to trace amounts
Structure (SMILES): NCc1ccc(-c2[nH]c3cc(F)cc4c3c2CCNC4=O)cc1 [M309]

Amount detected in feces [1]: trace amounts
Amount detected in plasma [2]: small or trace amounts
Matrix in which identified [3]: P, U, F
Amount observed in urine ([4]; pooled urine): small to trace amounts
Structure (SMILES): O=CNCc1ccc(-c2[nH]c3cc(F)cc4c3c2CCNC4=O)cc1 [M337b]
